The structures appear in SMILES notation. The source made the active and inactive calls.

For test [1], the target named is Mitogen-activated protein kinase 10 (Homo sapiens, UniProt P53779). In words: Dose response biochemical screening assay for inhibitors of c-Jun N-Terminal Kinase 3 (JNK3). [Related pubchem assays: 746 ].
The target of test [2] is Heat shock protein HSP 90-alpha (Homo sapiens, UniProt P07900). Nature of the test: Luminescence-based dose response biochemical high throughput screening assay for inhibitors of the Heat Shock Protein 90 (HSP90). [Related pubchem assays: 1831 (Summary AID.), 1846 (Confirmation screen.), 1789 (Primary screen.)].
Test [3] concerns the target Large T antigen (Simian virus 40, UniProt P03070). It is filed as functional, Betapolyomavirus macacae.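 Note: Confirmatory-stage PubChem screen for compounds that inhibit SV40 T antigen.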
Test [4] addresses Protein Tat (Human immunodeficiency virus type 1 group M subtype B (isolate HXB2)(HIV-1), UniProt P04608). It is filed as functional.
The target in test [5] is Sphingosine 1-phosphate receptor 2 (Homo sapiens, UniProt O95136). In words: Dose Response Cell Based Assay for Antagonists of the S1P2 Receptor. [Related pubchem assays: 856, 736 ]. It is filed as functional.
Test [6] is described as follows: Luminescence Cell-Based Dose Confirmation HTS to Identify Inhibitors of Polyadenylation. It is filed as functional.
The nature of test [7]: inhibitors of intracellular T. cruzi replication, confirmation, NIH3T3 host cells, beta-gal luminescence (AID 2044).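 Note: intracellular parasites grown in NIH/3T3 mouse fibroblasts as host cells; luminescent beta-galactosidase reporter signal from transgenic T. cruzi replicating inside host cells; inhibitors lower the luminescence signal.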 It is filed as functional, cell-based.
Test [8] in a line: Luminescence-based dose response cell-based high throughput screening assay for cytotoxic compounds using the IEC-6 intestinal epithelial cell line. [Related pubchem assays: 1858 (Summary AID.), 1825 (Counterscreen.), 1907 (Confirmation screen.)]. It is filed as functional. A general note: A counterscreen serves to expose hits that act by an unwanted route or on another target.

Test [9] in a line: cytotoxicity toward NIH3T3 fibroblasts, dose response, counter-screen, cell-based, ATP luminescence, mouse fibroblasts (AID 2010).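 Note: cells exposed to compound for about 90 hours before reading.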 It is filed as functional.
Test [10] relates to INS1. In words: beta cell apoptosis inhibitors, cytokine rescue, dose response, luminescence, retest (AID 449756).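 Note: cell death triggered by IL-1 beta plus TNF-alpha plus IFN-gamma mixture; protective hits raise ATP signal compared with cytokine alone wells.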 It is filed as functional, cell-based. The conditions noted are these: Rattus norvegicus.
Test [11] can be described thus: inhibitors of HIV Env-driven cell fusion, dose response, cherry-pick (AID 652057). It is filed as functional, cell-based.
A short description of test [12]: CEM21 lymphoblast cell cytotoxicity, dose response, cytotoxicity control for viral fusion inhibitor project, CellTiter-Glo luminescence, cherry-picked (AID 652042).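 Note: potency for signal decrease meaning cytotoxicity.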 It is filed as functional, cell-based. Background: In ATP-based viability assays light output follows the ATP content of the culture.
Test [13] can be described thus: ZM109 Env clade C HIV-1 fusion inhibitors, dose response, HeLa effector, CEM target cells, luciferase, cherry-pick (AID 652058). It is filed as functional, cell-based.
Test [14] in a line: off-target signal loss in HeLa-CEM21 co-culture – HeLa F-luc CTL cells, cherry-picked, counter-screen for HIV-1 Env fusion inhibitor project, dose response (AID 652040).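 Note: potency for signal decrease marking cytotoxic or nonspecific inhibition.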 It is filed as functional, cell-based.
Test [15] is described as follows: inhibitors of clade B AD8 Env fusion, dose response, cell-based, cherry-pick (AID 652062).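 Note: luciferase signal from cell-cell fusion driven by HIV-1 clade B AD8 Env; potency is for inhibitors of fusion seen as a drop in luminescence.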 It is filed as functional.
Test [16] deals with T1, COUP transcription factor 2 (Homo sapiens, UniProt P24468).
T1 sequence (P24468 whole entry): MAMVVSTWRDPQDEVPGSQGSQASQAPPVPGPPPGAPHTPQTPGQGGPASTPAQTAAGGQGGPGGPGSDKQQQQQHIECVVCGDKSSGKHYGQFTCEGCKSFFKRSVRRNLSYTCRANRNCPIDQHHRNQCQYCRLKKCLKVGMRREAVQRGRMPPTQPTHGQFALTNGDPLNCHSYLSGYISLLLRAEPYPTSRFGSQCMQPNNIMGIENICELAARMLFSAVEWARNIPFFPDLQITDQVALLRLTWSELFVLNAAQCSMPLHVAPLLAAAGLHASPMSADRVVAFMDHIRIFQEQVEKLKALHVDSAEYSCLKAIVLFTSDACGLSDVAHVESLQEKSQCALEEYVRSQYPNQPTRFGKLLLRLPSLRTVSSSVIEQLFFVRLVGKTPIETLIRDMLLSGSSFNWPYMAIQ
Nature of the test: Luminescence-based cell-based high throughput dose response assay to identify inhibitors of COUP-TFII (NR2F2). It is filed as functional.

Test [17] deals with Streptococcus sp. 'group A'. In words: growth inhibition of control SK(-) GAS strain, dose response, counter-screen for streptokinase expression inhibitor project, luminescence, kanamycin, BacTiterGlo, confirmation (AID 1900). It is filed as functional, organism-based.
Test [18] concerns BJ. In words: cytotoxicity toward BJ-TERT fibroblasts, dose response, cell-based, RAS-independent, luminescence (AID 1933). It is filed as functional. As to conditions: Homo sapiens.
The nature of test [19]: cells. It is filed as functional, cell-based.
The target in test [20] is T2, Beta-galactosidase (Escherichia coli, UniProt Q8VNN2). Nature of the test: PubChem AID 485352. It is filed as functional.
For test [21], the target named is T3, Streptokinase A (Streptococcus pyogenes serotype M1, UniProt P10520).
T3 sequence (P10520 whole entry): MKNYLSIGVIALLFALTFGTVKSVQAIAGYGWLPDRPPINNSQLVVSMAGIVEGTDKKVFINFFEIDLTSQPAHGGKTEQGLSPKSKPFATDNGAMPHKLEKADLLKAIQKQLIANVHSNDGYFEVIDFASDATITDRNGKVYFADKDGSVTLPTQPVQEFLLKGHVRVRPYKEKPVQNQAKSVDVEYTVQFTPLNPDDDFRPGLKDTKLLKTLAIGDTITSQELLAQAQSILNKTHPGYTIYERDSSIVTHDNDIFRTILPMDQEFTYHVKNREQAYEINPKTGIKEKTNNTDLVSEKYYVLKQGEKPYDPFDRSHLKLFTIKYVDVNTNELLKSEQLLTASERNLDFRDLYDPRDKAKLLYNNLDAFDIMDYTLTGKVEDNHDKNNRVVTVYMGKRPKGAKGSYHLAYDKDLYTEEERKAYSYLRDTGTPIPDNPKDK
In words: S. pyogenes streptokinase expression inhibitors, potency, dose response, plasminogen activation absorbance, OD405 (AID 1914).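 Note: secreted streptokinase activity via plasminogen activation per viability signal from cell pellet.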 It is filed as functional, Streptococcus pyogenes M1 GAS.

Test [22] relates to BJ. Nature of the test: cells. It is filed as functional, cell-based. The conditions noted are these: Homo sapiens.
In test [23] the target is T4, Type-1 angiotensin II receptor (Homo sapiens, UniProt P30556).
T4 sequence (P30556 whole entry): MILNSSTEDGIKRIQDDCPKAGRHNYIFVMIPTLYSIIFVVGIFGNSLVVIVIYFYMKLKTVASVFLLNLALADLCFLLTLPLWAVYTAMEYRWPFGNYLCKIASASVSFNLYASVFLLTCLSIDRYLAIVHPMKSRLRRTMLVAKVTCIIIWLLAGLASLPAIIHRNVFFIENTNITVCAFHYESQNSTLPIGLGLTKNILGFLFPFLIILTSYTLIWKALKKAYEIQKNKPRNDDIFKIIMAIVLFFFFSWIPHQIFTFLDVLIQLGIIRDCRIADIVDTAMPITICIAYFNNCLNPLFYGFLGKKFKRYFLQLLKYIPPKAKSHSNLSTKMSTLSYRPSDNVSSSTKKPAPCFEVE
Nature of the test: AT1 receptor antagonists, dose response, selectivity assay for APJ receptor antagonist project, cell-based, uHTS hits (AID 463214).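 Note: antagonist potency against angiotensin II stimulated AT1 response.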 It is filed as functional.

The nature of test [24]: cells. It is filed as functional, cell-based. This is another data set of the same source.
Test [25] deals with T5, Kappa-type opioid receptor (Homo sapiens, UniProt P41145). It is filed as functional.
Test [26] has as its target T2, Beta-galactosidase. It is filed as functional.
Test [27] relates to BJ. In words: cytotoxicity toward BJ-TERT-LT-ST fibroblasts, dose response, cell-based, RAS-independent, luminescence (AID 1935).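 Note: BJ fibroblasts immortalized with TERT plus LT and ST oncogenes.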 It is filed as functional. The conditions noted are these: Homo sapiens.
The target of test [28] is T5, Kappa-type opioid receptor. It is filed as functional. This is another data set of the same source.
Test [29] is described as follows: cytotoxicity toward DRD oncogenic fibroblasts, dose response, cell-based, non-viral oncogenic, luminescence (AID 1934). It is filed as functional. The conditions noted are these: Homo sapiens.
In test [30] the test system is Streptococcus. Nature of the test: Group A Streptococcus viability loss, dose response, counter-screen for streptokinase expression inhibitor project, luminescence, BacTiterGlo (AID 1915).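 Note: potency for reduction of bacterial viability or growth.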 It is filed as functional, organism-based.
Test [31] can be described thus: THP-1 cell cytotoxicity, dose response, cytotoxicity control for non-replicating M. tuberculosis project (AID 489025). It is filed as functional.
Test [32] is described as follows: HepG2 cell cytotoxicity, dose response, cytotoxicity control for non-replicating M. tuberculosis project (AID 489018). The conditions noted are these: Mycobacterium tuberculosis. It is filed as functional.
Test [33] is described as follows: Vero E6 cell cytotoxicity, dose response, cytotoxicity control for non-replicating M. tuberculosis project, secondary assay (AID 492998). It is filed as functional, VeroE6. As to conditions: Vero C1008.
Test [34] in a line: cytotoxicity in HEK-293T cells, dose response, cytotoxicity control for TCR NF-kB inhibitor project, luminescence, T-cell screen hits (AID 489026).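 Note: cells exposed to compound about 14 hours before the viability readout.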 It is filed as functional, cell-based.
Test [35] concerns the target T6, Heat shock factor protein 1 (Mus musculus, UniProt P38532).
T6 sequence (P38532 whole entry): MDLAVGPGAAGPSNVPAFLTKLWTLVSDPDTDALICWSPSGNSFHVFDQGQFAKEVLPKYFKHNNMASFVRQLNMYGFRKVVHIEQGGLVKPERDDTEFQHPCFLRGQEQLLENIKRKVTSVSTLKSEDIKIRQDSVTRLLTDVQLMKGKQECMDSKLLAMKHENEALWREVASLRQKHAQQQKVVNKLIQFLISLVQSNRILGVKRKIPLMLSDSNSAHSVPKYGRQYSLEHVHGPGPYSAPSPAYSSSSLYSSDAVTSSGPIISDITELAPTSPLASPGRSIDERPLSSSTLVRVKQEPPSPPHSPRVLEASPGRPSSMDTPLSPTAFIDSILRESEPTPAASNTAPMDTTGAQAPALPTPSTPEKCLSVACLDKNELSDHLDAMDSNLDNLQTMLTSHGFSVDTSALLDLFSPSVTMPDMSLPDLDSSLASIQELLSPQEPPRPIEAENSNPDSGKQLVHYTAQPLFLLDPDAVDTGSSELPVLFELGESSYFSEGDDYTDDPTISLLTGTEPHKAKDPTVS
In words: HSF1 potentiators in luciferase reporter cells, confirmation, cell-based, NIH3T3, luminescence, dose retest (AID 435004).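 Note: stress induced by proteasome inhibitor MG132 added 30 min after compound; luciferase reporter driven by HSF1 response element in NIH3T3 cells; actives raise luminescence as potentiators of the MG132 stress response.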 It is filed as functional.

Test [36] can be described thus: cells. It is filed as functional.
The subject of test [37] is BJ. Nature of the test: cytotoxicity toward Ras-transformed BJeLR fibroblasts, dose response, cell-based, alamar blue fluorescence, cherrypicked samples (AID 2631).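 Note: confirmatory dose-response assay in RAS-dependent BJ fibroblasts engineered with TERT, LT and ST, with cytotoxicity read by fluorescence.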 It is filed as functional. The conditions noted are these: Homo sapiens. (In general: Resazurin is reduced to fluorescent resorufin, in cell work by metabolically active cells.)
For test [38], the system named is Vero. In words: cells. The conditions noted are these: Chlorocebus sabaeus. It is filed as functional.
Test [39] can be described thus: AlphaScreen signal interference compounds, dose response, artefact control for ARNT-TACC3 interaction inhibitor project, biochemical, luminescence, cherry-pick (AID 651705).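 Note: AlphaScreen bead proximity signal that flags compounds interfering with the detection technology; potency reflects signal decrease which marks the compound as an assay artifact.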 It is filed as functional.

T5 sequence (P41145 whole entry): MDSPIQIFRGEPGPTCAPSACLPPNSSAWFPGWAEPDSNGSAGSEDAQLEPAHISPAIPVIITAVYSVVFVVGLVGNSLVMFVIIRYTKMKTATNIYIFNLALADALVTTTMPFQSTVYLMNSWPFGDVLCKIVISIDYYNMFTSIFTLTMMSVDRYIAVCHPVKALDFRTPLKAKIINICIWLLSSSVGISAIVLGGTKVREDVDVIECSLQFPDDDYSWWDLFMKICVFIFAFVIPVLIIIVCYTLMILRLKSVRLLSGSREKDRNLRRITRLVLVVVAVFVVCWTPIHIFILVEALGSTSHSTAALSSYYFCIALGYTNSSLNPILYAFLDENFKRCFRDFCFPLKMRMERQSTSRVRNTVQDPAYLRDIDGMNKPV
T2 sequence (Q8VNN2 whole entry): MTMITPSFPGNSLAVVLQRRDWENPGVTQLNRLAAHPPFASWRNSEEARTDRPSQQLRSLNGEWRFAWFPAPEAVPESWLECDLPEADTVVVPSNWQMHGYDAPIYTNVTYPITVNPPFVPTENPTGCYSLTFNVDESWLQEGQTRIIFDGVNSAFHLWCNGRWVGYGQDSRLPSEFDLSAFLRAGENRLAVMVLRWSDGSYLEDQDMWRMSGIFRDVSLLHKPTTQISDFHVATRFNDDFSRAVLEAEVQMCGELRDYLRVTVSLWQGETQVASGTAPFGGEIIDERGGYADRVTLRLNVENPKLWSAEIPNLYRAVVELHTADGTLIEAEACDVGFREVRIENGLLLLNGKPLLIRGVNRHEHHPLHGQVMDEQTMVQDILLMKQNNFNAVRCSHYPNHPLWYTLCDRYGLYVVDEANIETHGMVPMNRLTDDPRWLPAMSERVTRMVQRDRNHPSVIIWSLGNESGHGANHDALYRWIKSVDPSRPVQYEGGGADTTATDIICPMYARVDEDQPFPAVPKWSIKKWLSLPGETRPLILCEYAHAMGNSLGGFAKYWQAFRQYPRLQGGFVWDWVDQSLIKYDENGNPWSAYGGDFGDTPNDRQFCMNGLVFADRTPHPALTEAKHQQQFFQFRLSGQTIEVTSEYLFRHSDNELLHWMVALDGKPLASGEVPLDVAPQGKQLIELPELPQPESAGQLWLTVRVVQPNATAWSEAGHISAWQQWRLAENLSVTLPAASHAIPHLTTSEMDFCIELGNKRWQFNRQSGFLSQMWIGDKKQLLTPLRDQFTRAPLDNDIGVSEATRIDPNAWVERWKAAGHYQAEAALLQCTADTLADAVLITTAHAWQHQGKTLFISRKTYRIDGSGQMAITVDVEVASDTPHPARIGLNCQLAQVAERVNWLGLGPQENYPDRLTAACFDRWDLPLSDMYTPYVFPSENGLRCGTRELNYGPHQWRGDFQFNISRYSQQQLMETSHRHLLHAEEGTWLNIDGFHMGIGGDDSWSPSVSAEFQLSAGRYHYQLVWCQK
Chain of Sphingosine 1-phosphate receptor 2 (O95136 whole entry): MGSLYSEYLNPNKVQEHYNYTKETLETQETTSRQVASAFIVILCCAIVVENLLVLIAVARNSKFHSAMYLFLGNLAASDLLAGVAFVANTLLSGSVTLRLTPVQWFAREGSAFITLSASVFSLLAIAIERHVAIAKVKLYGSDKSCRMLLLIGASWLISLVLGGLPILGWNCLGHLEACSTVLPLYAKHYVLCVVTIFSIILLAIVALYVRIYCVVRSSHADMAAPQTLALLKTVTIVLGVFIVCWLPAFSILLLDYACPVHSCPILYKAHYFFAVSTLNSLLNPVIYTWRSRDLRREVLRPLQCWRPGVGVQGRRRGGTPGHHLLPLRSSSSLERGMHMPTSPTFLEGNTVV
Chain of Mitogen-activated protein kinase 10 (P53779 whole entry): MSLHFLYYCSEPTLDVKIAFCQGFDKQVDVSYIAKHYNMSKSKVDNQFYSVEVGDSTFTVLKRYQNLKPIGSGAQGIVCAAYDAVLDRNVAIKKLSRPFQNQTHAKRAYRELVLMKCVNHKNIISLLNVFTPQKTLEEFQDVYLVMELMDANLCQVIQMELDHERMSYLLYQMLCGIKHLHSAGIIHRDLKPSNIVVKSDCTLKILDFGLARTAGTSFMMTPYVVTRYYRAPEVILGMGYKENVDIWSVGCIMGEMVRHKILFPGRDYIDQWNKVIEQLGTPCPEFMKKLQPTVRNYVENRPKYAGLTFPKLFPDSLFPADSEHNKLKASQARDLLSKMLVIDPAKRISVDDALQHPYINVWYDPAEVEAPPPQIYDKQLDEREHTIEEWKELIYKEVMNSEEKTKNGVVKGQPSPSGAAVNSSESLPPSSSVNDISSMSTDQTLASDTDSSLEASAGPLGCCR
Chain of Large T antigen (P03070 whole entry): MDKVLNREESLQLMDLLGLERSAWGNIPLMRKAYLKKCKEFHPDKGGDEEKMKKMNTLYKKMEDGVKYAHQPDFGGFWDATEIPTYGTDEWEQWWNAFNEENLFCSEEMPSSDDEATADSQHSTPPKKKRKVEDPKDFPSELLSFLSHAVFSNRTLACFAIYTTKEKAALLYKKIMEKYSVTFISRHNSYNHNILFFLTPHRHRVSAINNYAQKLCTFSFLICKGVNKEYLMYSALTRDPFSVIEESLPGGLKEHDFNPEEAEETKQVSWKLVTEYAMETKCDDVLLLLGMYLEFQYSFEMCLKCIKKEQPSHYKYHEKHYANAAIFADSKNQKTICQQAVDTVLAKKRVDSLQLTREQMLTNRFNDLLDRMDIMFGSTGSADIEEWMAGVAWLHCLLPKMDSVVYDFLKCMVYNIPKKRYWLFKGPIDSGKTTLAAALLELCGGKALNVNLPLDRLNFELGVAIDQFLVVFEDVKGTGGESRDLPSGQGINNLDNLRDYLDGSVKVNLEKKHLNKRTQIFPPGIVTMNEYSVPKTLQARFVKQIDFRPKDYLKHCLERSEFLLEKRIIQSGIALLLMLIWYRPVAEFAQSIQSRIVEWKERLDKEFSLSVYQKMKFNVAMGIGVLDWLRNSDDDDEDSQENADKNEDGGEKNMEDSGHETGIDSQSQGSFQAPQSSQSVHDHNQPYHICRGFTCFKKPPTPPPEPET
Chain of Protein Tat (P04608 whole entry): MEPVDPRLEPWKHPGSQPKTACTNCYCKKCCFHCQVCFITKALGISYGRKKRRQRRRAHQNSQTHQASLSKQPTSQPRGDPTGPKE

As usually defined, the IC50 is the concentration that inhibits the measured activity by half. For `O=c1c2c(nc3n1CCCCC3)sc1c(O)cccc12`, in test [1], the IC50 is given as 55.7 µM (not active).
Consider `C=CCc1ccc(OCc2ccc(C(=O)OC)o2)c(OC)c1`, for which, in test [2], the IC50 is 7.02 µM (active).
For `CC(NC(=O)Nc1ccc(O)cc1)(C(F)(F)F)C(F)(F)F`, the values for the IC50 in [3] and in [4] were 14.3 µM (active) and 44.8 µM (inconclusive), respectively.
With `O=C(c1sc2cc(C(F)(F)F)cnc2c1-c1ccccc1)N1CCOCC1`, the IC50 in test [5] is > 30 µM (not active).
As usually defined, the EC50 is the concentration needed to bring the measured effect to its halfway point. For the compound `Cc1nc2ccc(NC(=O)Cc3ccc4c(c3)OCCO4)cc2s1`, the concentration for a half-maximal effect (EC50) in [6] is on record as > 120 µM (not active).
The term AC50 denotes the concentration giving half of the maximal activity seen. For `CC(C)(C)c1ccc(C2CC2C(=O)N/N=C\c2ccc[nH]2)cc1` (stereo unspecified), the EC50 is 0.389 µM (active) in [7] and 3.25 µM (active) in test [9]. Moreover, the results for the IC50 in test [8] and in [16] were 1.44 µM (active) and 2.66 µM (active), respectively. In addition, the AC50 is 0.854 µM (active) in [10]; 3.52 µM (active) in [11]; 4.53 µM (active) in test [12]; 1.5 µM (active) in test [13]; 2.75 µM (active) in [14]; 1.97 µM (active) in test [15].
In general, CC50 refers to the concentration giving 50% cytotoxicity. Consider `O=C(N/N=C(\c1ccccc1)c1cccnc1)c1cccc(F)c1`, for which the EC50 is 5.5 µM (active) in test [17]; 12.4 µM (active) in test [18]; 28.7 µM (active) in test [19]; > 40 µM (inactive) in [20]; > 150 µM (not active) in [21]; 5.95 µM (active) in test [22]. In addition, the EC50 in [24] was > 350 µM (not active); in test [26], > 31.5 µM (inactive); in test [27], 4.43 µM (active); in [29], 5.35 µM (inconclusive); in test [30], 11 µM (active); in test [35], 21.5 µM (active). For the same compound, in [37], the EC50 was 0.939 µM (active). For the same compound, the IC50 is 0.747 µM (active) in test [8]; 10.8 µM (active) in [23]; 13.1 µM (active) in [25]; over 32 µM in [28]; > 80 µM (inactive) in test [34]; 1.73 µM (active) in test [36]. In addition, the CC50 in test [31] is 0.726 µM (active); in [32], 9.37 µM (active); in [33], 1.18 µM (active); in test [38], 1.7 µM (active). Besides, the AC50 in test [10] was 0.519 µM (active); in [39] it was 120 µM (active).

The record behind these values is ChEMBL document CHEMBL1201862, “PubChem BioAssay data set” (2004).
